Reference: US8338475B2, “Anti-proliferative pharmaceutical composition” (BioCis Pharma Oy, priority 2003, dated 2012)

Columns and labels:
[1] = system: WM 266-4 (cutaneous melanoma); assay: Proliferation assay (CellTiter 96), WM266-4 cells; assay type: cell-based, human
Protocol: The cells were cultured in triplicate with or without 2 μM camptothecin (CPT) or 10 mM cis-UCA in a density of 15,000 cells per […]. A, Cells taken from normal pH 7.4 cultures to test conditions at pH 6.5. B, Cells cultured in low pH 6.7 adaptation medium for 3 d, then tested at pH 6.5. C, Cells cultured and tested at pH 7.4.
(§1) Transformed tumour cell lines WM 266-4 and A2058 (cutaneous melanoma), HT-1080 (epithelial fibrosarcoma), HeLa (epithelial adenocarcinoma of cervix), HK293 (kidney epithelial cells) and non-transformed cell line HSF (skin fibroblast from a healthy volunteer donor) of human origin have been described earlier (Li et al. 2003). The K562 (chronic myelogenous leukemia) cells were purchased from American Type Culture Collection.
(§2) The cells were maintained in logarithmic growth phase in IMDM medium (Invitrogen, Paisley, UK) supplemented with 10% fetal calf serum and antibiotics in a humidified incubator at +37° C., 5% CO2. The adherent cells lines were harvested for experiments with 0.25% trypsin-EDTA in PBS for 5 min and then resuspended and washed in medium. After counting of viable cells, 15,000 to 75,000 cells were transferred into flat-bottom 96-well cell culture plates in a volume of 100 or 150 μl.
(§3) The proliferation activity of cultured cell lines was quantified in flat-bottom 96-well plates with a modified colorimetric assay based on a tetrazolium derivative (CellTiter 96 Aqueous One Solution Cell Proliferation Assay, Promega). The cells were cultured in the presence of camptothecin and/or cis-UCA for 20 to 92 h, then the proliferation reagent was added for 2 h, and the absorbance at 490 nm was measured in a plate reader. Blank absorption values in wells containing medium without cells were subtracted before comparison analysis.
The cell lines were tested in a 44-h culture at pH 6.5 with or without 2 μM camptothecin and 10 mM cis-UCA at 15,000 cells per 100 μl total volume. […] In order to further characterise the effective anti-proliferative concentration range of cis-UCA, proliferation was measured in a 44-h assay at pH 6.5 with cis-UCA concentration ranging from 30 μM to 30 mM.

[2] = system: HeLa (epithelial adenocarcinoma of cervix); assay: Proliferation assay (CellTiter 96), HeLa cells; assay type: cell-based, human; conditions: pH 6.5, 44 h, cis-UCA 10 mM, CPT 2 μM, 15,000 cells per 100 μl
Excerpt: as §1, §2
as §3, with “Blank absorption values in wells containing medium without cells were subtracted before comparison analysis.” left out

[3] = system: A2058 human cutaneous melanoma tumours; assay: Tumour growth in SCID/SCID mice in vivo; conditions: 16-day treatment, intratumoural 30 mM cis-UCA, 1 μM CPT, pH 6.5
Protocol: All injection solutions were adjusted to pH 6.5. The data points have been normalised to unity tumour size at day 0. Data from five mice in each group is included (mean, SD).
The A2058 human cutaneous melanoma cells were cultured under normal cell culture conditions prior to injection into mice. Two million A2058 cells were injected s.c. into the neck of SCID/SCID mice (Charles River Laboratories, Germany). Tumours were allowed to develop for two weeks to the size of a small pearl before the treatments. The mice were divided into four groups of six animals, each containing three males and three females. Each tumour was first injected 50 μl of one of the test solutions (A: PBS; B: 30 mM cis-UCA; C: 1 μM CPT; D: 30 mM cis-UCA+1 μM CPT) three times a week (Mon-Wed-Fri). After day 7 from the beginning of injections, the injection volume was increased to 150 μl injected into three different sides of the tumour. Tumour length and width were measured with a caliper three times a week before each injection. Tumour planar area was calculated as length×width. The tumour growth inhibition efficiency I of the treatments was calculated according to Equation 1:
[formula] where Sr represents the normalised relative size of the tumour in the control group (A) or any of the treatment groups (T), and d0 to d16 are the (eight) measuring time points during the 16-day treatment period.
(§4) After 16 days from the first injection, all the animals were sacrificed with CO2, and the tumours were collected and fixed in formalin for further studies. In groups A, C, and D, one mouse was sacrificed before the end of the experiment because of poor development of the tumour (no measurable tumour at day 0). One animal in group B was sacrificed prematurely after it had severly scratched the tumour. Data from these animals were not included in the calculation of the tumour size results. All the removed animals were female mice. Immunohistochemical data was obtained also from the removed mice except from group B. The experiments were conducted under a protocol approved by the local ethics committee.

A2058 tumours = assay: Haematoxylin/eosin staining of tumour sections (necrosis); assay type: in vivo, SCID/SCID mice; conditions: tumours collected after 16 days; 30 mM cis-UCA, 1 μM CPT intratumoural
Excerpt: as §4
Paraffin sections of the tumours were stained with haematoxylin/eosin following standard procedures for an overall picture. Ki67 was stained to detect the amount of proliferating cells. The staining procedure for the Ki67 primary antibody (Dako, Klostrup, Denmark) at 1:50 dilution and secondary antibody (StreptABComplex/HRP Duet Mouse/Rabbit, Dako) at 1:100 dilution followed the instructions provided by the manufacturer. Two sections from each tumour was examined.

[4] = cited from earlier work

Structure (SMILES): O=C(O)/C=C\c1c[nH]cn1 [cis-UCA, cis-urocanic acid]
- percentage inhibition of proliferation ([1]; 10 mM cis-UCA alone, cells from pH 7.4 cultures tested at pH 6.5, 92 h (FIG. 2A)): 36%
- percentage inhibition of proliferation ([1]; 10 mM cis-UCA, cells adapted to pH 6.7 for 3 days, tested at pH 6.5, 92 h (FIG. 2B)): 28%
- Inhibition of proliferation (mean percentage inhibition ± SD compared with untreated control) ([1]; pH 6.5, 44 h, cis-UCA 10 mM, CPT 2 μM, 15,000 cells per 100 μl): 20 ± 0.6%
- Inhibition of proliferation (mean percentage inhibition ± SD compared with untreated control) [2]: 50 ± 1.7%
- Growth suppression, female ([3]; female mice): 72.0%
- Growth suppression, male ([3]; male mice): 55.9%
- Necrosis (histological sections with haematoxylin/eosin staining) (A2058 tumours): Dead cells and large necrotic areas were detected and yes
- second pKa (imidazolyl group) ([4]; Roberts et al. 1982, Krien & Kermici 2000): 7.0
- first pKa (carboxyl group) ([4]; Roberts et al. 1982): 3.3
